Reference: ChEMBL document CHEMBL5380842, “Discovery of a Potent and Selective CCR8 Small Molecular Antagonist IPG7236 for the Treatment of Cancer” (J Med Chem, 2023)
Values after ≈ are worked out from the molar mass of the structure shown.

Tests used:
[1] = Stability in mouse hepatocytes assessed as half life; format: ADME, cell-based, Hepatocyte
[2] = AUClast in Sprague-Dawley rat at 1 mg/kg, iv; format: ADME, organism-based; set-up: dose 1 mg/kg, route iv; settings: in vivo
[3] = AUClast in Beagle dog at 3 mg/kg, iv; format: ADME, organism-based, Canis lupus familiaris; set-up: dose 3 mg/kg, route iv; settings: in vivo
MDA-MB-231 [4] = test: Antitumor activity against human MDA-MB-231 cells xenografted in humanized NCG mouse assessed as decrease in tumor-infiltrating Treg cells administered intragastrically twice everyday; format: functional, cell-based; settings: dose 2-50 mg/kg, route ig
Cytochrome P450 2C19 = Cytochrome P450 2C19 (Homo sapiens, UniProt P33261); test: Inhibition of CYP2C19 (unknown origin); format: ADME
Sequence of Cytochrome P450 2C19 (P33261 whole entry): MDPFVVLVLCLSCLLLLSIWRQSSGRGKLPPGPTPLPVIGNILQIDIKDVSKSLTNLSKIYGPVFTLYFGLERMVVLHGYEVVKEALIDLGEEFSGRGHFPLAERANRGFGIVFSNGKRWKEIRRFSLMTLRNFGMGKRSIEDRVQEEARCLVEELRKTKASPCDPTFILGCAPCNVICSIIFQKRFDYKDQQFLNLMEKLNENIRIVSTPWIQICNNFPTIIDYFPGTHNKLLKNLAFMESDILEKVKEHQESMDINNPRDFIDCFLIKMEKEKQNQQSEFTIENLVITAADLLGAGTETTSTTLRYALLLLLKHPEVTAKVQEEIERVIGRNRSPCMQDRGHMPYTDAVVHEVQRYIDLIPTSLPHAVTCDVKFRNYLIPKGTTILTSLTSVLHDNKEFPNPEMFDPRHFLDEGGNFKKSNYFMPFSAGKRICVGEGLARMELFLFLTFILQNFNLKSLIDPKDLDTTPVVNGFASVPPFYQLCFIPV

[5] = Apparent permeability of compound across basal to apical side in human Caco2 cells at 10 uM incubated for 120 mins by LC-MS/MS analysis; settings: Caco-2
[6] = Volume of distribution at steady state in ICR mouse at 1 mg/kg, iv; format: ADME, organism-based; settings: in vivo, read-out: Vdss
[7] = Volume of distribution at steady state in Cynomolgous monkey at 1 mg/kg, iv; format: ADME, organism-based, Macaca fascicularis; settings: cynomolgus monkey, in vivo, read-out: Vdss
[8] = Volume of distribution at steady state in Sprague-Dawley rat at 1 mg/kg, iv; format: ADME, organism-based; settings: in vivo, read-out: Vdss
[9] = Stability in mouse liver microsomes assessed as half life; format: ADME, Microsome
MDA-MB-231 [10] = test: Antitumor activity against human MDA-MB-231 cells xenografted in humanized NCG mouse assessed as tumor growth inhibition at 10 mg/kg, po bid relative to control; format: functional; settings: read-out: TGI
[11] = molecular target: Voltage-gated inwardly rectifying potassium channel KCNH2 (Homo sapiens, UniProt Q12809); test: Inhibition of hERG; format: toxicity
Sequence of Voltage-gated inwardly rectifying potassium channel KCNH2 (Q12809 whole entry): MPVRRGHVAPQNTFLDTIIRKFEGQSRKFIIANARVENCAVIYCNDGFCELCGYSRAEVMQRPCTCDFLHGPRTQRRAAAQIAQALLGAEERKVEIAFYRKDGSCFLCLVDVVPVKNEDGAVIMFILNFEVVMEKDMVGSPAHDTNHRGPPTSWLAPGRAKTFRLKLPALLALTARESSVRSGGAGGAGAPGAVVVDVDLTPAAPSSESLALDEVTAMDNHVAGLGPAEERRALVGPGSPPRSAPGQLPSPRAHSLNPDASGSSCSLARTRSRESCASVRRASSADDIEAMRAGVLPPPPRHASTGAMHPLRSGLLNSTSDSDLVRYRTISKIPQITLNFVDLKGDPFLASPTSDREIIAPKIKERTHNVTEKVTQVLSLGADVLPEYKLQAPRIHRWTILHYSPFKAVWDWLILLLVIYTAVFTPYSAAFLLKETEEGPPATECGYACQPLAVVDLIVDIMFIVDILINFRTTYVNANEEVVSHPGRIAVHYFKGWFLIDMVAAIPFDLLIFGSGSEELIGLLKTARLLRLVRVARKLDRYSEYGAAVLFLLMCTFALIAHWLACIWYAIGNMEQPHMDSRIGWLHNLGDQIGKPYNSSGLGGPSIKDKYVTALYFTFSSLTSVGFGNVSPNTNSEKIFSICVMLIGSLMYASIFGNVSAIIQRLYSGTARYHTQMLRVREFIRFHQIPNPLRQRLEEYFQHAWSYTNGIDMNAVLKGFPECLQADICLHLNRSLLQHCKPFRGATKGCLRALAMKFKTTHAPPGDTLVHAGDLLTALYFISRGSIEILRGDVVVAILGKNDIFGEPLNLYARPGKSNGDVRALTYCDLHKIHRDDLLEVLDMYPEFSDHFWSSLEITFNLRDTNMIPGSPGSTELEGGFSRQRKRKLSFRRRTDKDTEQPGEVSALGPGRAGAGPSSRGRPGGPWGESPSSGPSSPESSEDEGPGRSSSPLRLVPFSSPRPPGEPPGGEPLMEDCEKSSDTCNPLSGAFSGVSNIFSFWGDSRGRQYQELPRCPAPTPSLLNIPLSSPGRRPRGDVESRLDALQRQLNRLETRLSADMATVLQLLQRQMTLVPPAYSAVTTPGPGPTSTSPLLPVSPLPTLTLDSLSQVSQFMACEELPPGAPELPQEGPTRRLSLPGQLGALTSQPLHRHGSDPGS

[12] = Tmax in Sprague-Dawley rat at 50 mg/kg, po; format: ADME, organism-based; settings: in vivo
[13] = Tmax in Beagle dog at 10 mg/kg, po; format: ADME, organism-based, Canis lupus familiaris; settings: in vivo
[14] = AUClast in Cynomolgous monkey at 50 mg/kg, po; format: ADME, organism-based, Macaca fascicularis; set-up: dose 50 mg/kg, route po; settings: cynomolgus monkey, in vivo
[15] = Clearance in Sprague-Dawley rat at 1 mg/kg, iv; format: ADME, organism-based; settings: in vivo
[16] = Solubility of compound in PBS at pH 7.4 incubated for 2 hrs by LC-MS/MS analysis; format: physicochemical

## Cc1cc(S(=O)(=O)N[C@H](C)C2CCN(C)CC2)ccc1NC(=O)c1ccccc1C
[1]
  half-life: 43.5 h
[2]
  AUC(0-t): 395 ng·h/mL
[3]
  AUC(0-t): 3550 ng·h/mL
MDA-MB-231 [4]
  Activity: Dose-Dependent Effect
Cytochrome P450 2C19
  IC50: > 10 µM
[5]
  Papp B→A at 2 h, 10 µM: 17.2 ×10⁻⁶ cm/s
[6]
  Vd: 2.2 L/kg
[7]
  Vd: 2.8 L/kg
[8]
  Vd: 4.4 L/kg
[9]
  half-life: 0.433 h
MDA-MB-231 [10]
  inhibition in vivo at 10 mg/kg: 47.2%
[11]
  IC50: > 30 µM
[12]
  Tmax: 3.3 h
[13]
  Tmax: 0.5 h
[14]
  AUC(0-t): 28900 ng·h/mL
[15]
  clearance: 40.9 mL/min/kg
[16]
  solubility at 2 h: 254 µM (≈ 109 µg/mL)
